Measurements taken from ChEMBL document CHEMBL1138010, “Discovery of highly potent, selective, orally bioavailable, metabotropic glutamate subtype 5 (mGlu5) receptor antagonists devoid of cytochrome P450 1A2 inhibitory activity” (Bioorg Med Chem Lett, 2004).

Columns and labels:
[1] = target: Metabotropic glutamate receptor 5 (Rattus norvegicus) (UniProt P31424); assay: Percent occupancy of the Metabotropic glutamate receptor 5 by the [3H]3-methoxy-5-(pyridin-2-ylethynyl)pyridine ligand 1 hr post-administration of 10 mg/kg compound ip; format: organism-based; set-up: dose 10 mg/kg
[2] = target: Metabotropic glutamate receptor 5 (Rattus norvegicus) (UniProt P31424); assay: Antagonistic activity against Metabotropic glutamate receptor 5 in [Ca2+] flux assay using glutamate (10 uM) as agonist; format: functional
Cytochrome P450 1A2 = target: T1, Cytochrome P450 1A2 (Homo sapiens, UniProt P05177); assay: Antagonistic activity against recombinant cytochrome P450 1A2; format: ADME; details: recombinant enzyme
T1 sequence (P05177 whole entry): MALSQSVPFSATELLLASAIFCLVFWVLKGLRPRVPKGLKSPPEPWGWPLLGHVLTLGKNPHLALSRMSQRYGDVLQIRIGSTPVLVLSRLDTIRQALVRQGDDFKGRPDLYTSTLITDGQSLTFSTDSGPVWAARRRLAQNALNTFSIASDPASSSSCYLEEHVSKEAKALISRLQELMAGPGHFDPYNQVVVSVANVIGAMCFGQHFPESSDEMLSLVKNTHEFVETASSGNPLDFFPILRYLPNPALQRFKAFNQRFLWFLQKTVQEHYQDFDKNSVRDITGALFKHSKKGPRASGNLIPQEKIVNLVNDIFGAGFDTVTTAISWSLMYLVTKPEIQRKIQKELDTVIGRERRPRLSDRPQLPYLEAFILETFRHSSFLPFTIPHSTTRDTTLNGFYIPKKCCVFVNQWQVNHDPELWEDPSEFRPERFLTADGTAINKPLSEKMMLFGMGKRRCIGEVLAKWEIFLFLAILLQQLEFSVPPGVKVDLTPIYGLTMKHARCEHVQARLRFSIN

[3] = target: Metabotropic glutamate receptor 5 (Rattus norvegicus, UniProt P31424); assay: Binding affinity towards Metabotropic glutamate receptor was determined by displacing [3H]3-methoxy-5-(pyridin-2-ylethynyl)pyridine from rat cortical membranes
Cytochrome P450 3A4 = Cytochrome P450 3A4 (Homo sapiens, UniProt P08684); assay: Antagonistic activity against recombinant cytochrome P450 3A4; format: ADME; details: recombinant enzyme
[4] = Area under the curve after dosing 2 mg/kg iv and 10 mg/kg po; format: ADME, organism-based; details: rat, in vivo
Cytochrome P450 2C19 = Cytochrome P450 2C19 (Homo sapiens, UniProt P33261); assay: Antagonistic activity against recombinant cytochrome P450 2C19; format: ADME; details: recombinant enzyme
[5] = Oral bioavailability after dosing 2 mg/kg iv and 10 mg/kg po; format: ADME, organism-based; details: rat, in vivo
Cytochrome P450 2C9 = Cytochrome P450 2C9 (Homo sapiens, UniProt P11712); assay: Antagonistic activity against recombinant cytochrome P450 2C9; format: ADME; details: recombinant enzyme
Rattus norvegicus = assay: Concentration in rat brain measured at 1 hr post-administration of 10 mg/kg ip; format: functional, organism-based; set-up: dose 10 mg/kg
[6] = Volume of distribution after dosing 2 mg/kg iv and 10 mg/kg po; format: ADME, organism-based; details: rat, in vivo
[7] = Plasma clearance after dosing 2 mg/kg iv and 10 mg/kg po; format: ADME, organism-based; details: rat
Cytochrome P450 2D6 = Cytochrome P450 2D6 (Homo sapiens, UniProt P10635); assay: Antagonistic activity against recombinant cytochrome P450 2D6; format: ADME; details: recombinant enzyme
[8] = Plasma clearance was determined; format: ADME, organism-based; details: rat
[9] = Half life was determined; format: ADME; details: rat
[10] = Area under the curve was determined; format: ADME; details: rat
[11] = Oral bioavailability; format: ADME, organism-based; details: rat, in vivo
[12] = Volume of distribution was determined; format: ADME, organism-based; details: rat, in vivo

Metabotropic glutamate receptor 5 (Rattus norvegicus), sequence (P31424 21-1203 limits assumed): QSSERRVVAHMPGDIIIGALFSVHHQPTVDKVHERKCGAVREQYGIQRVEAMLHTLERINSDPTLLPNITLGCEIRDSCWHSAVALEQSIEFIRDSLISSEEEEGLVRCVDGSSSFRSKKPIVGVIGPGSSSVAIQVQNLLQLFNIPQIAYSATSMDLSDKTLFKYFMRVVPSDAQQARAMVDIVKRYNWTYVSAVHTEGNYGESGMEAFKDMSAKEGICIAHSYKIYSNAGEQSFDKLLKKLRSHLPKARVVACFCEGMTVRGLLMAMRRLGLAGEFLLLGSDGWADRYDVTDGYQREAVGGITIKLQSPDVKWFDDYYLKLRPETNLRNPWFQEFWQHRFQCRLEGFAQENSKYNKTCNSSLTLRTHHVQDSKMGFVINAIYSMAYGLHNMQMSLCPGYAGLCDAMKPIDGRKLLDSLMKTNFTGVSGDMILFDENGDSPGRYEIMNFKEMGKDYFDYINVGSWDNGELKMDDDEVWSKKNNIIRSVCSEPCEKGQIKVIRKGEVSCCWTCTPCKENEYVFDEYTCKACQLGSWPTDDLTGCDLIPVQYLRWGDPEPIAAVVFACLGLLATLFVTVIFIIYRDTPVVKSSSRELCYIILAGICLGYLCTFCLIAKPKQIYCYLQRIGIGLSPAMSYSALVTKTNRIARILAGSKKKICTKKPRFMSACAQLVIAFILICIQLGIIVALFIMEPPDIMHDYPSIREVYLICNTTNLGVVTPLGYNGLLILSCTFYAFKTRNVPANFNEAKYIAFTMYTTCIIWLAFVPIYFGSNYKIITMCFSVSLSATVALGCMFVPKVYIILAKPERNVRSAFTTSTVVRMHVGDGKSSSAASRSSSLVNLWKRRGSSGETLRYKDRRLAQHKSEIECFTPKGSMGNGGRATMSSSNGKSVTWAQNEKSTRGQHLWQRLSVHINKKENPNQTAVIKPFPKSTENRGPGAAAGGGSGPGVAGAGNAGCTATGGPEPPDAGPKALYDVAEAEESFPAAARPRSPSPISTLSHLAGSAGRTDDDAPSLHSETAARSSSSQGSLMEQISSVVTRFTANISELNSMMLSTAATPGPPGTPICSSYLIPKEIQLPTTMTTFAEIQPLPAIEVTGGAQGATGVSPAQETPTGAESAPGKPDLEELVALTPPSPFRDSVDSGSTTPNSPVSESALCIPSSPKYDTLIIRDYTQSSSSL
Metabotropic glutamate receptor 5, sequence (P31424 whole entry): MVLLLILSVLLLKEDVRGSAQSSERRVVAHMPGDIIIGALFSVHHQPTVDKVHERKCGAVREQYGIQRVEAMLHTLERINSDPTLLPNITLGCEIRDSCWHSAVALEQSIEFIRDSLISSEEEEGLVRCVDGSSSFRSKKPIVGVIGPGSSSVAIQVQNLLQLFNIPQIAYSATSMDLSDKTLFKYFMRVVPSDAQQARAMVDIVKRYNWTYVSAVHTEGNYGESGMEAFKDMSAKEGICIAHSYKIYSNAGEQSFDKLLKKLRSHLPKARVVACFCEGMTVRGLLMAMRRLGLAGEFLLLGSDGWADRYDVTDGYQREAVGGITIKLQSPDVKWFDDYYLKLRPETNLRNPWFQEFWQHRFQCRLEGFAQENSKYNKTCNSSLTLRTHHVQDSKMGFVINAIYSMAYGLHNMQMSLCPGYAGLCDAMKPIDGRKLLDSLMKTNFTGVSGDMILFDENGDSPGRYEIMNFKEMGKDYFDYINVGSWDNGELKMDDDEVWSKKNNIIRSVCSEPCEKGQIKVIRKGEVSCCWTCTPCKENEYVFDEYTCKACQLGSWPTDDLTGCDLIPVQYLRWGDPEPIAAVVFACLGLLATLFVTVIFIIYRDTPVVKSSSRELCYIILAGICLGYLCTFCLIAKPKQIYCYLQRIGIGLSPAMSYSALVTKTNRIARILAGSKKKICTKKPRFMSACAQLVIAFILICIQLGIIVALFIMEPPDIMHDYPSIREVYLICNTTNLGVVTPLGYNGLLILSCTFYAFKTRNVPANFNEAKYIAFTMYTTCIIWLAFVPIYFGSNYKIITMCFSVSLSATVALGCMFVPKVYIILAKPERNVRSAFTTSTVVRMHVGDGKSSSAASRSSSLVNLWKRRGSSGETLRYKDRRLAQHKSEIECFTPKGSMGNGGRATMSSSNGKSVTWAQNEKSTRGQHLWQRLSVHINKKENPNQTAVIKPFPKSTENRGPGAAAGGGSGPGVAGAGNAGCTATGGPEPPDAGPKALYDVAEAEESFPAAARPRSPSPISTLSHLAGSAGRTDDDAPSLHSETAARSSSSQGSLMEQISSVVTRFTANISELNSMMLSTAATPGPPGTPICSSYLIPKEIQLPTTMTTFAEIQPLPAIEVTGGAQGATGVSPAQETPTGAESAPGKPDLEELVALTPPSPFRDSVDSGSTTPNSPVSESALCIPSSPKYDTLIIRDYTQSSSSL
Cytochrome P450 3A4, sequence (P08684 whole entry): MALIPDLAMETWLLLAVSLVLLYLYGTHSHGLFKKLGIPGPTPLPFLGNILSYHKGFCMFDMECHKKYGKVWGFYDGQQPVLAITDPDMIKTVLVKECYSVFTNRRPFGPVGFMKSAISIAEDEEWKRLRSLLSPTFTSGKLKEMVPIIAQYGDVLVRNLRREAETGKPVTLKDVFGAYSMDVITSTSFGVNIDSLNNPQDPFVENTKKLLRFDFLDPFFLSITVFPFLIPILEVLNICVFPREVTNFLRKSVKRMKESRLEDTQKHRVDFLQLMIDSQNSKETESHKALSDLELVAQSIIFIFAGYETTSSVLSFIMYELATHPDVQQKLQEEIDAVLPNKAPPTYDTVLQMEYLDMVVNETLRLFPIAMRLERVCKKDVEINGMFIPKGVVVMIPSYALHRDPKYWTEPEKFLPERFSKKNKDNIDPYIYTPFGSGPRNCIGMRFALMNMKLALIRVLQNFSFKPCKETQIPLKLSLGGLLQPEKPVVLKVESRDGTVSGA
Cytochrome P450 2C19, sequence (P33261 whole entry): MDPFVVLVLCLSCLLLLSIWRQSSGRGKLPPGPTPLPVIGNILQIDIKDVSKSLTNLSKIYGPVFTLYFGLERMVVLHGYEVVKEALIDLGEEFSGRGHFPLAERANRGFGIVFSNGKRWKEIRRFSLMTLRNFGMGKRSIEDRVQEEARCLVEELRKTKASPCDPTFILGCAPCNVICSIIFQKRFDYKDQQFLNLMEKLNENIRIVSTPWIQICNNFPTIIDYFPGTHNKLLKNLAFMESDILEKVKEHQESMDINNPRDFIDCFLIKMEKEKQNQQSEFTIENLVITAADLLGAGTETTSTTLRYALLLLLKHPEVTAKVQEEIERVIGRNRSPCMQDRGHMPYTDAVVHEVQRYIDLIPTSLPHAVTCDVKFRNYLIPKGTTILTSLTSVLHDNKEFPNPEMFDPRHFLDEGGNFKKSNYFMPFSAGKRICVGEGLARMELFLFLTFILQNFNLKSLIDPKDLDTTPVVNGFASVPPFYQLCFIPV
Cytochrome P450 2C9, sequence (P11712 whole entry): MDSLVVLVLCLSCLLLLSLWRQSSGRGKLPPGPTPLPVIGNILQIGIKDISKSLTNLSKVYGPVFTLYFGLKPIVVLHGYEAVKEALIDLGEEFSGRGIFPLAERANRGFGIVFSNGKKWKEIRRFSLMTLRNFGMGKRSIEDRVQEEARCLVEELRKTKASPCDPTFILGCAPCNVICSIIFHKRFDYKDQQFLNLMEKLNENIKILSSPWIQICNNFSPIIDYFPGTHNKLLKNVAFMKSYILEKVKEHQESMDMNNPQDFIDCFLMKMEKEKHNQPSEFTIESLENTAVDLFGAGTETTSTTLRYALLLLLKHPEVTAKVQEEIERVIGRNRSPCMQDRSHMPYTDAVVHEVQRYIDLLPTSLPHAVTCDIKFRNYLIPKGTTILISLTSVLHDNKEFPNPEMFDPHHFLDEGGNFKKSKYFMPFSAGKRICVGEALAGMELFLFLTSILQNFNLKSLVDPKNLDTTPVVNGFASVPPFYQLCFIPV
Cytochrome P450 2D6, sequence (P10635 whole entry): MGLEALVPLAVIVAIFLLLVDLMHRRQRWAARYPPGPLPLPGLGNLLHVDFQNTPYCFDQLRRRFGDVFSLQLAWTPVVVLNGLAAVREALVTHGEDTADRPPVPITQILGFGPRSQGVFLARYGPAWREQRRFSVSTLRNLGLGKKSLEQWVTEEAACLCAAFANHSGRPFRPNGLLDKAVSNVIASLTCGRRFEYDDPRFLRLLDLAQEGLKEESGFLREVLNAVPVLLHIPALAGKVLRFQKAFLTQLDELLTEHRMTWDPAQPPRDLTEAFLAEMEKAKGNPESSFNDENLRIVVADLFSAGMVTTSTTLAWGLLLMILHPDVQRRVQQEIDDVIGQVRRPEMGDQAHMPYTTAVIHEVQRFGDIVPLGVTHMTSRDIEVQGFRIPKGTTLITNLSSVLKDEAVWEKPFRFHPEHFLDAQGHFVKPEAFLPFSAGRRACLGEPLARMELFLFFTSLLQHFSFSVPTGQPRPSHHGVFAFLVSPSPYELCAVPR

| SMILES | Occupancy [1] | Activity [2] | Activity (Cytochrome P450 1A2) | Ki [3] | also measured |
| --- | --- | --- | --- | --- | --- |
| N#Cc1cc(F)cc(-n2nnc(-c3ncc[nH]3)n2)c1 | 95% | 47 nM | > 14 µM | 9.3 nM |  |
| N#Cc1cc(F)cc(-n2nnc(-c3ccccn3)n2)c1 |  | 3.9 nM | 2.3 µM |  | Activity (Cytochrome P450 3A4): > 14 µM; AUC [4]: 9.6 µM·h; Activity (Cytochrome P450 2C19): > 14 µM; bioavailability [5]: 24%; Activity (Cytochrome P450 2C9): > 14 µM; Concentration (Rattus norvegicus): 9.7 µM; Vd [6]: 1.1 L/kg; clearance [7]: 15 mL/min/kg; Activity (Cytochrome P450 2D6): > 14 µM |
| N#Cc1cccc(-n2nnc(-c3ccccn3)n2)c1 | 90% | 73 nM | 3.8 µM | 102 nM |  |
| Cc1c[nH]c(-c2nnn(-c3cc(F)cc(C#N)c3)n2)n1 | 97% | 77 nM | > 14 µM | 19 nM | Activity (Cytochrome P450 3A4): > 14 µM; clearance [8]: 40 mL/min/kg; Activity (Cytochrome P450 2C19): > 14 µM; half-life [9]: 18 min; Activity (Cytochrome P450 2C9): > 14 µM; Concentration (Rattus norvegicus): 8.1 µM; AUC [10]: 3.4 µM·h; bioavailability [11]: 22%; Vd [12]: 0.6 L/kg; Activity (Cytochrome P450 2D6): > 14 µM |
| Fc1cc(Oc2cccnc2)cc(-n2nnc(-c3ncc[nH]3)n2)c1 | 69% | 9.7 nM | 5.1 µM | 3.2 nM |  |
| Cc1ccncc1-c1cc(F)cc(-n2nnc(-c3ccccn3)n2)c1 | 95% | 5.2 nM | 0.5 µM | 1.8 nM |  |
| Fc1cc(Oc2cccnc2)cc(-n2nnc(-c3ccccn3)n2)c1 | 90% | 6.7 nM | 0.7 µM |  |  |
| N#Cc1cccc(-n2nnc(-c3cc[nH]n3)n2)c1 |  | > 2000 nM |  | > 2000 nM |  |
| Cc1ccncc1-c1cc(F)cc(-n2nnc(-c3ncc[nH]3)n2)c1 | 29% | 20 nM | 3.5 µM | 3.5 nM |  |
| N#Cc1cccc(-n2nnc(-c3cscn3)n2)c1 |  | 148 nM | 1.7 µM | 157 nM |  |
| N#Cc1cccc(-n2nnc(-c3c[nH]cn3)n2)c1 |  | > 2000 nM |  | > 2000 nM |  |
| N#Cc1cccc(-n2nnc(-c3nccs3)n2)c1 |  | 142 nM | 1 µM | 183 nM |  |
| N#Cc1cccc(-n2nnc(-c3ncc[nH]3)n2)c1 |  | 77 nM | > 14 µM | 34 nM |  |
